Test results from US10010614B2, “Derivatives of GLP-1 like peptides, and uses thereof” (Novo Nordisk A/S, priority 2013, dated 2018).
pEC50, pIC50: −log10 of the molar value. Like-named read-outs stand apart in the source and are kept apart here. Numbered stars: 1 amine (or outer) side, 2 acyl side, 3 side chain; on linkers, the order of the positions; unused ones are H or OH. Square brackets hold non-standard residues; d marks the D form. Side chains are listed from the residue outwards. Peptide text beside a SMILES is read from it. * marks the point of attachment. X3 = O=C(O)CCCCCCCCCCCCCCCCCCC(=O)N[C@@H](CCC(=O)NCCCOCCOCCOCCCNC(=O)COCC(=O)*)C(=O)O; C20 diacid = O=C(O)CCCCCCCCCCCCCCCCCCC(=O)*; γGlu = O=C(O)[C@H](CCC(=O)[*:2])N[*:1]; εLys = N[C@@H](CCCCN[*:1])C(=O)[*:2]; Trx = NC[C@H]1CC[C@H](C(=O)O)CC1; AEEA = NCCOCCOCC(=O)O; Aib = CC(C)(N)C(=O)O

What was measured:
human GLP-1 receptor [1] = molecular target: T1, human GLP-1 receptor (Homo sapiens, UniProt P43220); assay: In vitro potency, CRE luciferase reporter gene assay in BHK cells expressing the human GLP-1 receptor; type: cell-based; settings: whole cell reporter gene assay, 3 h incubation, no HSA, averages of at least two replicates
T1 construct: expressed in transfected cells; host or cells: membranes prepared from BHK cells (parent line BHKTS13), clone FCW467-12A
T1 sequence (P43220 24-463): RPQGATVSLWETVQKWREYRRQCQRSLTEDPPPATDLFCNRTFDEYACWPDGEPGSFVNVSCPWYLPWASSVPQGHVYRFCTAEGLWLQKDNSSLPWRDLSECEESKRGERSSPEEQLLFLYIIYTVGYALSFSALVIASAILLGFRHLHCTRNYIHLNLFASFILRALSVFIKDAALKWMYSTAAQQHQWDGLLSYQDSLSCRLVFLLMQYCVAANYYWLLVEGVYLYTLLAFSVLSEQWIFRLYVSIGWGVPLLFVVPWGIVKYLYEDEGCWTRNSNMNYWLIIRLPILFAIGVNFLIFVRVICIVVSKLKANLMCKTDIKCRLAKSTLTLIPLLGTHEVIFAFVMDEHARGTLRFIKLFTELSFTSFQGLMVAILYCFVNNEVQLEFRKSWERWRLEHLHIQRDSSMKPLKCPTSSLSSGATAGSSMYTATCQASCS
Description: The purpose of this example is to test the activity, or potency, of the GLP-1 derivatives in vitro. The in vitro potency is the measure of human GLP-1 receptor activation in a whole cell assay.
Semaglutide was included for comparison.
In vitro potency was determined by measuring the response of the human GLP-1 receptor in a reporter gene assay. The assay was performed in a stably transfected BHK cell line that expresses the human GLP-1 receptor and contains the DNA for the cAMP response element (CRE) coupled to a promoter and the gene for firefly luciferase (CRE luciferase). When the human GLP-1 receptor is activated it results in the production of cAMP, which in turn results in the luciferase protein being expressed. When assay incubation is completed the luciferase substrate (luciferin) is added and the enzyme converts luciferin to oxyluciferin to produce bioluminescence. The luminescence is measured as the readout for the assay.
The cells used in this assay (clone FCW467-12A/KZ10-1) were BHK cells with BHKTS13 as a parent cell line. The cells were derived from a clone (FCW467-12A) that expresses the human GLP-1 receptor and were established by further transfection with CRE luciferase to obtain the current clone.
The cells were cultured at 5% CO2 in Cell Culture Medium. They were aliquoted and stored in liquid nitrogen. Before each assay an aliquot is taken up and washed twice in PBS before being suspended at the desired concentration in the assay specific buffer. For 96-well plates the suspension was made to give a final concentration of 5×10^3 cells/well.
The following chemicals were used in the assay: Pluronic F-68 (10%) (Gibco 2404), human serum albumin (HSA) (Sigma A9511), ovalbumin (Sigma A5503), DMEM w/o phenol red (Gibco 11880-028), 1 M Hepes (Gibco 15630), Glutamax 100× (Gibco 35050) and steadylite plus (PerkinElmer 6016757).
Cell Culture Medium consisted of DMEM medium with 10% FBS (Fetal Bovine Serum; Invitrogen 16140-071), 1 mg/ml G418 (Invitrogen 15140-122), 240 nM MTX (methotrexate; Sigma M9929) and 1% pen/strep (penicillin/streptomycin; Invitrogen 15140-122).
Assay Medium consisted of DMEM w/o phenol red, 10 mM Hepes and 1× Glutamax. The Assay Buffer consisted of 2% ovalbumin and 0.2% Pluronic F-68 in Assay Medium.
1) Cell stocks were thawed in a 37° C. water bath.
2) Cells were washed three times in PBS.
3) The cells were counted and adjusted to 5×10^3 cells/50 μl (1×10^5 cells/ml) in Assay Medium. A 50 μl aliquot of cells was transferred to each well in the assay plate.
4) Stocks of the test compounds and reference compounds were diluted to a concentration of 0.2 μM in Assay Buffer. Compounds were diluted 10-fold to give the following concentrations: 2×10^−7 M, […]; 2×10^−9 M, 2×10^−10 M, 2×10^−11 M, 2×10^−12 M, 2×10^−13 M, and 2×10^−14 M. 5) A 50 μl aliquot of compound or blank was transferred from the dilution plate to the assay plate. Compounds were tested at the following final concentrations: 1×10^−7 M, 1×10^−8 M; 1×10^−9 M, 1×10^−10 M, 1×10^−11 M, 1×10^−12 M, 1×10^−13 M, and 1×10^−14 M. 6) The assay plate was incubated for 3 h in a 5% CO2 incubator at 37° C. 7) The assay plate was removed from the incubator and allowed to stand at room temperature for 15 min. 8) A 100 μl aliquot of steadylite plus reagent was added to each well of the assay plate (reagent was light sensitive). 9) Each assay plate was covered with aluminum foil to protect it from light and shaken for 30 min at room temperature. 10) Each assay plate was read in a Packard TopCount NXT instrument. Calculations and Results
The data from the TopCount instrument were transferred to GraphPad Prism software. The software performs a non-linear regression (log(agonist) vs response).
A minimum of two replicates was measured for each sample. The reported values are averages of the replicates.

human GLP-1 receptor [2] = molecular target: T1, human GLP-1 receptor; assay: GLP-1 receptor binding, competitive binding assay (125I-GLP-1, SPA) on isolated membranes;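 also: test compounds added at a range of concentrations to membranes from cells expressing the human GLP-1 receptor, scored by displacement of labelled ligand, read with WGA SPA beads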
[3] = high serum albumin (2.0% HSA final assay concentration), read-out: High HSA IC50
[4] = low serum albumin (max. 0.001% final assay concentration), read-out: Low HSA IC50
[5] = High HSA IC50 (nM), high serum albumin (2.0% HSA final assay concentration)
[6] = Low HSA IC50 (nM), low serum albumin (max. 0.001% final assay concentration)

pIC50 (human GLP-1 receptor [2]; [3]) | pIC50 (human GLP-1 receptor [2]; [4]) | Compound | pEC50 (human GLP-1 receptor [1]) | IC50 (human GLP-1 receptor [2]; [5]) | IC50 (human GLP-1 receptor [2]; [6])
6.71 | 9.09 | CC[C@H](C)[C@H](NC(=O)[C@H](Cc1ccccc1)NC(=O)[C@H](CCC(=O)O)NC(=O)[C@H](CCCNC(=N)N)NC(=O)[C@H](C)NC(=O)[C@H](C)NC(=O)[C@H](CCC(N)=O)NC(=O)[C@H](CCC(=O)O)NC(=O)[C@H](CCC(=O)O)NC(=O)[C@H](CC(C)C)NC(=O)[C@H](Cc1ccc(O)cc1)NC(=O)[C@H](CO)NC(=O)[C@H](CO)NC(=O)[C@@H](NC(=O)[C@H](CC(=O)O)NC(=O)[C@H](CO)NC(=O)[C@@H](NC(=O)[C@H](Cc1ccccc1)NC(=O)[C@@H](NC(=O)CNC(=O)[C@H](CCC(=O)O)NC(=O)C(C)(C)NC(=O)[C@@H](N)Cc1c[nH]cn1)[C@@H](C)O)[C@@H](C)O)C(C)C)C(=O)N[C@@H](C)C(=O)N[C@@H](Cc1c[nH]c2ccccc12)C(=O)N[C@@H](CC(C)C)C(=O)N[C@H](C(=O)N[C@@H](CCCNC(=N)N)C(=O)NCC(=O)N[C@@H](CCCNC(=N)N)C(=O)NCC(=O)N[C@@H](CCCCNC(=O)COCC(=O)NCCCOCCOCCOCCCNC(=O)CC[C@H](NC(=O)CCCCCCCCCCCCCCCCCCC(=O)O)C(=O)O)C(=O)NCC(=O)NCC(=O)N[C@@H](CO)C(=O)N[C@@H](CCCCNC(=O)COCC(=O)NCCCOCCOCCOCCCNC(=O)CC[C@H](NC(=O)CCCCCCCCCCCCCCCCCCC(=O)O)C(=O)O)C(=O)O)C(C)C [Example 22, N{Alpha}([Aib8,Glu22,Arg26,Arg34]-GLP-1-(7-37)-peptidyl)-N{Epsilon}[2-[2-[3-[2-[2-[3-[[(4S)-4-carboxy-4-(19-carboxynonadecanoylamino)butanoyl]amino]propoxy]ethoxy]ethoxy]propylamino]-2-oxoethoxy]acetyl]Lys-Gly-Gly-Ser-N{Epsilon}[2-[2-[3-[2-[2-[3-[[(4S)-4-carboxy-4-(19-carboxynonadecanoylamino)butanoyl]amino]propoxy]ethoxy]ethoxy]propylamino]-2-oxoethoxy]acetyl]Lys] (H-H[Aib]EGTFTSDVSSYLEEQAAREFIAWLVRGRGK(X3)GGSK(X3)-OH; N-terminus and C-terminus assumed) | 11.00 | – | –
– | – | CC[C@H](C)[C@H](NC(=O)[C@H](Cc1ccccc1)NC(=O)[C@H](CCC(=O)O)NC(=O)[C@H](CCCNC(=N)N)NC(=O)[C@H](C)NC(=O)[C@H](C)NC(=O)[C@H](CCC(N)=O)NC(=O)[C@H](CCC(=O)O)NC(=O)[C@H](CCC(=O)O)NC(=O)[C@H](CC(C)C)NC(=O)[C@H](Cc1ccc(O)cc1)NC(=O)[C@H](CO)NC(=O)[C@H](CO)NC(=O)[C@@H](NC(=O)[C@H](CC(=O)O)NC(=O)[C@H](CO)NC(=O)[C@@H](NC(=O)[C@H](Cc1ccccc1)NC(=O)[C@@H](NC(=O)CNC(=O)[C@H](CCC(=O)O)NC(=O)C(C)(C)NC(=O)[C@@H](N)Cc1c[nH]cn1)[C@@H](C)O)[C@@H](C)O)C(C)C)C(=O)N[C@@H](C)C(=O)N[C@@H](Cc1c[nH]c2ccccc12)C(=O)N[C@@H](CC(C)C)C(=O)N[C@H](C(=O)N[C@@H](CCCNC(=N)N)C(=O)NCC(=O)N[C@@H](CCCCNC(=O)COCCOCCNC(=O)COCCOCCNC(=O)CC[C@H](NC(=O)[C@H]1CC[C@H](CNC(=O)CCCCCCCCCCCCCCCCCCC(=O)O)CC1)C(=O)O)C(=O)NCC(=O)N[C@@H](C)C(=O)N[C@@H](CCC(=O)O)C(=O)N[C@@H](CO)C(=O)N1CCC[C@H]1C(=O)N[C@@H](CCCCNC(=O)COCCOCCNC(=O)COCCOCCNC(=O)CC[C@H](NC(=O)[C@H]1CC[C@H](CNC(=O)CCCCCCCCCCCCCCCCCCC(=O)O)CC1)C(=O)O)C(=O)O)C(C)C [Example 14] (H-H[Aib]EGTFTSDVSSYLEEQAAREFIAWLVRGK([AEEA-AEEA-γGlu-Trx-C20 diacid])GAESPK([AEEA-AEEA-γGlu-Trx-C20 diacid])-OH) | 10.66 | 530 nM | 1.5 nM
– | – | CC[C@H](C)[C@H](NC(=O)[C@H](Cc1ccccc1)NC(=O)[C@H](CCC(=O)O)NC(=O)[C@H](CCCNC(=N)N)NC(=O)[C@H](C)NC(=O)[C@H](C)NC(=O)[C@H](CCC(N)=O)NC(=O)[C@H](CCC(=O)O)NC(=O)[C@H](CCC(=O)O)NC(=O)[C@H](CC(C)C)NC(=O)[C@H](Cc1ccc(O)cc1)NC(=O)[C@H](CO)NC(=O)[C@H](CO)NC(=O)[C@@H](NC(=O)[C@H](CC(=O)O)NC(=O)[C@H](CO)NC(=O)[C@@H](NC(=O)[C@H](Cc1ccccc1)NC(=O)[C@@H](NC(=O)CNC(=O)[C@H](CCC(=O)O)NC(=O)C(C)(C)NC(=O)[C@@H](N)Cc1c[nH]cn1)[C@@H](C)O)[C@@H](C)O)C(C)C)C(=O)N[C@@H](C)C(=O)N[C@@H](Cc1c[nH]c2ccccc12)C(=O)N[C@@H](CC(C)C)C(=O)N[C@H](C(=O)N[C@@H](CCCNC(=N)N)C(=O)NCC(=O)N[C@@H](CCCNC(=N)N)C(=O)NCC(=O)N[C@@H](CCCCNC(=O)COCCOCCNC(=O)COCCOCCNC(=O)CC[C@H](NC(=O)[C@H]1CC[C@H](CNC(=O)CCCCCCCCCCCCCCCCCCC(=O)O)CC1)C(=O)O)C(=O)N1CCC[C@H]1C(=O)N[C@@H](CCC(=O)O)C(=O)NCC(=O)N[C@@H](CCCCNC(=O)COCCOCCNC(=O)COCCOCCNC(=O)CC[C@H](NC(=O)[C@H]1CC[C@H](CNC(=O)CCCCCCCCCCCCCCCCCCC(=O)O)CC1)C(=O)O)C(=O)O)C(C)C [Example 12] (H-H[Aib]EGTFTSDVSSYLEEQAAREFIAWLVRGRGK([AEEA-AEEA-γGlu-Trx-C20 diacid])PEGK([AEEA-AEEA-γGlu-Trx-C20 diacid])-OH) | 10.62 | 212 nM | 1.4 nM
7.52 | 10.10 | CC[C@H](C)[C@H](NC(=O)[C@H](Cc1ccccc1)NC(=O)[C@H](CCC(=O)O)NC(=O)[C@H](CCCNC(=N)N)NC(=O)[C@H](C)NC(=O)[C@H](C)NC(=O)[C@H](CCC(N)=O)NC(=O)[C@H](CCC(=O)O)NC(=O)[C@H](CCC(=O)O)NC(=O)[C@H](CC(C)C)NC(=O)[C@H](Cc1ccc(O)cc1)NC(=O)[C@H](CO)NC(=O)[C@H](CO)NC(=O)[C@@H](NC(=O)[C@H](CC(=O)O)NC(=O)[C@H](CO)NC(=O)[C@@H](NC(=O)[C@H](Cc1ccccc1)NC(=O)[C@@H](NC(=O)CNC(=O)[C@H](CCC(=O)O)NC(=O)C(C)(C)NC(=O)[C@@H](N)Cc1c[nH]cn1)[C@@H](C)O)[C@@H](C)O)C(C)C)C(=O)N[C@@H](C)C(=O)N[C@@H](Cc1c[nH]c2ccccc12)C(=O)N[C@@H](CC(C)C)C(=O)N[C@H](C(=O)N[C@@H](CCCNC(=N)N)C(=O)NCC(=O)N[C@@H](CCCNC(=N)N)C(=O)NCC(=O)N[C@@H](CCCCNC(=O)COCCOCCNC(=O)COCCOCCNC(=O)COCCOCCNC(=O)COCCOCCNC(=O)COCCOCCNC(=O)[C@@H](N)CCCCNC(=O)[C@@H](N)CCCCNC(=O)CCCCCCCCCCCCCCCCCCC(=O)O)C(=O)NCC(=O)NCC(=O)N[C@@H](CO)C(=O)N[C@@H](CCCCNC(=O)COCCOCCNC(=O)COCCOCCNC(=O)COCCOCCNC(=O)COCCOCCNC(=O)COCCOCCNC(=O)[C@@H](N)CCCCNC(=O)[C@@H](N)CCCCNC(=O)CCCCCCCCCCCCCCCCCCC(=O)O)C(=O)O)C(C)C [Example 27] (H-H[Aib]EGTFTSDVSSYLEEQAAREFIAWLVRGRGK([AEEA-AEEA-AEEA-AEEA-AEEA-εLys-εLys-C20 diacid])GGSK([AEEA-AEEA-AEEA-AEEA-AEEA-εLys-εLys-C20 diacid])-OH; N-terminus and C-terminus assumed) | 11.36 | – | –
